According to patent publication US20220177418A1, “INHIBITORS OF THE N-TERMINAL DOMAIN OF THE ANDROGEN RECEPTOR” (The Regents of the University of California, priority 2019, published 2022):

Columns and labels:
Format in all cases: cell-based
[1] = tested on: AR-expressing (AR-positive) prostate cancer cell lines; test: MTT cell viability assay, AR-positive cells; conditions: growth inhibition grade, 6 days
Description: (§1) FIGS. 3A-Q. Growth inhibitory effects of selected compounds. The indicated cells were exposed to the indicated compounds for 6 days; cell viability was measured by MTT assay, and specific reporters were assayed using literature conditions. Results were normalized to that of vehicle control. Experiments were performed in quadruplicate; results are means±s.d.
(§2) JN053 and JN138-JN156 were synthesized and tested in biochemical and cell biologic assays that have been described elsewhere. The JN compounds were first studied in cell viability assays (MTT assay) to determine the efficacy and specificity of the JN compounds for inhibition of prostate cancer cell lines.
(§3) The growth inhibitory effect of the JN compounds was assessed through the MTT assay, which assesses the total number of viable cells in vitro. These experiments were performed in AR-expressing (AR-positive) prostate cancer cell lines to assess on target effects and AR-null (AR-negative) prostate cancer cell lines to assess off target effects (i.e. specificity).
AR-expressing (AR-pos): • LNCaP: full length AR • LNCaP AR: overexpression of full length AR • 22Rv1: full length AR and ARV7 • VCaP: full length AR and ARV7 • CWR22: full length AR and ARV7

[2] = tested on: AR-null (AR-negative) prostate cancer cell lines; test: MTT cell viability assay, AR-negative cells; conditions: growth inhibition grade, 6 days
Description: as §1, §2, §3

[3] = target: glucocorticoid receptor (GR) (Homo sapiens, UniProt P04150); test: GRE-luciferase reporter assay; conditions: GR-dependent, inhibition grade
Chain of glucocorticoid receptor (GR) (P04150 whole entry, species assumed, canonical isoform): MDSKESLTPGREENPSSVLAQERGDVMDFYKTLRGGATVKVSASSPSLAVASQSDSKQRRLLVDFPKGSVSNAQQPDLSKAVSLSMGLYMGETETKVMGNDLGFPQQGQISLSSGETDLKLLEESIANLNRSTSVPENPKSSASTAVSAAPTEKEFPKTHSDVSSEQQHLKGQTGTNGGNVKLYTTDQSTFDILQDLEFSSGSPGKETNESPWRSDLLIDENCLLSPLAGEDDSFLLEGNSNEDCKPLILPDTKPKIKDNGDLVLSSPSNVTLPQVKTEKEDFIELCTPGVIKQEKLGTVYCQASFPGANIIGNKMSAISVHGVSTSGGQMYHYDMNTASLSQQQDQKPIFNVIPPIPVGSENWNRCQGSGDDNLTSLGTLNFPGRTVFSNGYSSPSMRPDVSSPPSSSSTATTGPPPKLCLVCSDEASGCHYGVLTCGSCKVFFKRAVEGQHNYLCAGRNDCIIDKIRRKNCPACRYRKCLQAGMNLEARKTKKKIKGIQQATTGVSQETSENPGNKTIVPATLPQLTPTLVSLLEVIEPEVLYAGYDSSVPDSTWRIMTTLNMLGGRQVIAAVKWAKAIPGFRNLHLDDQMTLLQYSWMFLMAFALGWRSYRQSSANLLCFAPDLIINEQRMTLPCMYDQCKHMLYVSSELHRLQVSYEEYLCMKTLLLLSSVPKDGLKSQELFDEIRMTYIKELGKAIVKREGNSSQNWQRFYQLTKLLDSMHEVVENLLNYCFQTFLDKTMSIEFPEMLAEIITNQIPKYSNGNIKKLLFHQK
Description: (§4) The biochemical assays include reporter assays to determine the activity and specificity of these JN compounds to inhibit the transcriptional activity of the androgen receptor (AR). The reporter assays were conducted in various cell lines that either endogenously or exogenously express the full-length AR and ARV7, a constitutively active splice variant that is resistant to all clinically available AR targeting compounds. The reporter assays were performed in replicates and across a wide range of concentrations (generally […]).
(§5) The reporter systems utilized include: • MMTV-luciferase: AR-dependent • ARE-luciferase: AR-dependent • GRE-luciferase: glucocorticoid receptor (GR)-dependent • CRE-luciferase: CREB-dependent • AP1-luciferase: AP1 (jun and fos family)-dependent: • AR-TAD-luciferase: dependent on AR transactivation domain • CREB-TAD-luciferase: dependent on CREB transactivation domain • JUN-TAD-luciferase: dependent on c-Jun transactivation domain

[4] = tested on: c-Jun transactivation domain; test: JUN-TAD-luciferase reporter assay; conditions: inhibition grade
Description: as §4, §5

[5] = tested on: CREB transactivation domain; test: CREB-TAD-luciferase reporter assay; conditions: inhibition grade
Description: as §4, §5

AP1 (jun and fos family) = test: AP1-luciferase reporter assay; conditions: inhibition grade
Description: as §4, §5

androgen receptor (AR) = target: T1, androgen receptor (AR) (Homo sapiens, UniProt P10275); test: MMTV-luciferase reporter assay (AR-dependent); conditions: inhibition grade
T1 construct: either endogenously or exogenously express the full-length AR and ARV7
T1 sequence (P10275 whole entry): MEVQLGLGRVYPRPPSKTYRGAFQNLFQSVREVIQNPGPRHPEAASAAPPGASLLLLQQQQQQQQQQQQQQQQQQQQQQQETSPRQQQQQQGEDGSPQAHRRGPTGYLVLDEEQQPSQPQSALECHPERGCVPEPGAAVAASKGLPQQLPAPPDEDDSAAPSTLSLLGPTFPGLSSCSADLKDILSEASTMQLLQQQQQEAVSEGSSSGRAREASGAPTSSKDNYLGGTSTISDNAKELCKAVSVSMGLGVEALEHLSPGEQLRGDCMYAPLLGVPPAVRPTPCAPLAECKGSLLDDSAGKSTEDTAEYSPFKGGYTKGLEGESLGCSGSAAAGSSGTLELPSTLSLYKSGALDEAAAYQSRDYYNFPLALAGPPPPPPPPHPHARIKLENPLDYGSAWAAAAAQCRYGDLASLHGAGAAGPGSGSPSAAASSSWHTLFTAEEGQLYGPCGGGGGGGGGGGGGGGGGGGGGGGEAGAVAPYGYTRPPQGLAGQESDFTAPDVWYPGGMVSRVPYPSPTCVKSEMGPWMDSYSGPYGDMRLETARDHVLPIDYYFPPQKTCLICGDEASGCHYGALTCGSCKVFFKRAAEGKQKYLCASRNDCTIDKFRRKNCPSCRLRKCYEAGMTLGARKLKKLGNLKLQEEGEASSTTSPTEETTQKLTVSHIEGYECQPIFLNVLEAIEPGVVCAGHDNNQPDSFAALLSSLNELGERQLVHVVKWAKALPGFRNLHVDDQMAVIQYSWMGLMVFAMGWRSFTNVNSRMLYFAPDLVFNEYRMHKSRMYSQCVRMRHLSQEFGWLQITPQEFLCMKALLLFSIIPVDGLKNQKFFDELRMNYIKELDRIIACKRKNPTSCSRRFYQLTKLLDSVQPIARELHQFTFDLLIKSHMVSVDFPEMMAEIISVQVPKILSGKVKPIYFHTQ
Description: (§6) The biochemical assays include reporter assays to determine the activity and specificity of these JN compounds to inhibit the transcriptional activity of the androgen receptor (AR). […] The reporter assays were performed in replicates and across a wide range of concentrations (generally […]).
as §5

[6] = target: AR transactivation domain (Homo sapiens, UniProt P10275); test: AR-TAD-luciferase reporter assay; conditions: inhibition grade
Chain of AR transactivation domain (P10275 1-559 limits assumed): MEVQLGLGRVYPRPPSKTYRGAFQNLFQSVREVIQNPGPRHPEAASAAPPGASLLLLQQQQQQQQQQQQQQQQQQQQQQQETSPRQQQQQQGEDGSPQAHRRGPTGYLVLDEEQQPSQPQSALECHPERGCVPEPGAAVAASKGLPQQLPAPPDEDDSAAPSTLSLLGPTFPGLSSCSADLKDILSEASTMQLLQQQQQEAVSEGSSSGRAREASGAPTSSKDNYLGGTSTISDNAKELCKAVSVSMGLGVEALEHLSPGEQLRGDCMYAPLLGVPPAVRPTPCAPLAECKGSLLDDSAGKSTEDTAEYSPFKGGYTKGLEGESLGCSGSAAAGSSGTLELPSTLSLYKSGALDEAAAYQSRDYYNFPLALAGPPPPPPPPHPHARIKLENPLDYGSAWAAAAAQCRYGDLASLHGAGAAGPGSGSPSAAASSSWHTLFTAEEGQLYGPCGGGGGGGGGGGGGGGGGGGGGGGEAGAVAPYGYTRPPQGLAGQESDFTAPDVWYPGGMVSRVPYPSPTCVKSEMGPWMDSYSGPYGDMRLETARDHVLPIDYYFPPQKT
Description: as §6, §5

[7] = tested on: AR transcriptional program; test: Whole transcriptomic RNA-sequencing, gene set expression analysis; conditions: LNCaP-AR and 22Rv1 cells, 10 μM, 8 hours
Description: Negative enrichment scores (NES are shown for the AR transcriptional program.
Whole transcriptomic RNA-sequencing was performed for two castration resistant cell lines (LNCaP-AR and 22Rv1), which were exposed to JN103 (10 μM) for 8 hours. The experimental results as determined by gene set expression analysis (FIG. 10) show negative enrichment scores (NES) for the AR transcriptional program.

[8] = target: T2, full-length AR overexpressed in LNCaP-AR cells (Homo sapiens, UniProt P10275); test: Western blot protein degradation with cycloheximide, LNCaP-AR cells
T2 construct: the full-length AR overexpressed in LNCaP-AR cells; expressed in transfected cells; host or cells: LNCaP-AR cells
T2 sequence (P10275 whole entry): as the sequence (P10275 whole entry) above
Description: (§7) LNCaP-AR cells were treated with JN103 and cycloheximide (to inhibit translation) at the indicated doses and times (FIG. 11A). Cell protein was subjected to Western blotting for the indicated proteins. The same tests were performed on LNCaP-95 cells, HEK-293 cells engineered to ectopically express ARΔ567, PC3 cells, and T47D breast cancer cells.

full-length AR and AR-V7 = test: Western blot protein degradation with cycloheximide, LNCaP-95 cells; conditions: endogenously expressed
Description: as §7

ARΔ567 = target: T3, ARΔ567 (Homo sapiens, UniProt P10275); test: Western blot protein degradation with cycloheximide, HEK-293 cells; conditions: ectopically expressed
T3 construct: expressed in transfected cells; host or cells: HEK-293 cells
T3 sequence (P10275 with tags, fused parts or gaps limits assumed): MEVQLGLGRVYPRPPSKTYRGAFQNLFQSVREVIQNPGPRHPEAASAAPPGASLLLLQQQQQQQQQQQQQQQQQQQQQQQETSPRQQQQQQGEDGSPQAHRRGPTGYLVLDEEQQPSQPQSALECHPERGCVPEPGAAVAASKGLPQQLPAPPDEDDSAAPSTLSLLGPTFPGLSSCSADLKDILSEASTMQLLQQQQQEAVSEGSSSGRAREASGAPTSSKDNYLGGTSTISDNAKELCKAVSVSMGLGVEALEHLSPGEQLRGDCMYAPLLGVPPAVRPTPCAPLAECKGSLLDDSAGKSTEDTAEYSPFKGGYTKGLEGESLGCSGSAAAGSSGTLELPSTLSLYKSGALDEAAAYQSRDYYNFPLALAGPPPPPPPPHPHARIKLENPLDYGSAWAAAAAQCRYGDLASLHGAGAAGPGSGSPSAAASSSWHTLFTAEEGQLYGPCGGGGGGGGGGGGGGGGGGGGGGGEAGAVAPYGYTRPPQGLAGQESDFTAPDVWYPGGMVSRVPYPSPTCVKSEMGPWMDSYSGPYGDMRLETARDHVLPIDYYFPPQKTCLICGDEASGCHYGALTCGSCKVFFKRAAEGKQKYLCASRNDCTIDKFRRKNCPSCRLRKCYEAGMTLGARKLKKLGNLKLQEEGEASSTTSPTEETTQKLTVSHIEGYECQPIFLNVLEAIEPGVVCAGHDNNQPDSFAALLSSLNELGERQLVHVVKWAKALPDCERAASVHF
Description: as §7

actin or the GR = test: Western blot protein degradation, other proteins; conditions: FIGS. 11(A)-11(D)
Description: as §7

AR = target: T4, AR (Homo sapiens, UniProt P10275); test: Western blot protein degradation, T47D breast cancer cells, AR; conditions: breast cancer cell line that co-expresses AR, ER, and PR (T47D)
T4 construct: a breast cancer cell line that co-expresses AR, ER, and PR; endogenous in cells; host or cells: T47D breast cancer cells
Description: as §7

ER or PR = test: Western blot protein degradation, T47D breast cancer cells, ER and PR; conditions: breast cancer cell line that co-expresses AR
Description: as §7

[9] = tested on: LNCaP-AR (full-length AR); test: Colony formation assay, LNCaP-AR; conditions: 2-10 μm, two weeks
Description: (§8) DU145, PC3LNCaP-AR (full-length AR), 22Rv1 (full-length and splice variant AR), and VCaP cells (400 cells/well of 6-well plate) were treated with indicated 0 (pure DMSO), 2, 4, 6, 8, 10 μm of JN103 for two weeks. Colonies were visualized with methylene blue staining.

[10] = tested on: 22Rv1 (full-length and splice variant AR); test: Colony formation assay, 22Rv1; conditions: 22Rv1, 2-10 μm, two weeks
Description: as §8

[11] = tested on: VCaP (full-length and splice variant AR); test: Colony formation assay, VCaP; conditions: 2-10 μm, two weeks
Description: as §8

AR-null DU145 cells = test: Colony formation assay, DU145; conditions: DU145, 2-10 μm, two weeks
Description: as §8

PC3 cell = test: Colony formation assay, PC3; conditions: PC3, at high concentrations, two weeks
Description: as §8

[12] = tested on: breast cancer cell line (T47D); test: MTT assay on non-prostate cancer cell lines; conditions: 2-8 μm, 5 days
Description: The growth-inhibitory effects of JN103 were also assessed in MTT assays on 20 non-prostate cancer cell lines. (FIG. 13). Cells were exposed to 0 (pure DMSO), 2, 4, 6, and 8 μm of JN103 for 5 days and subjected to MTT assay to determine cell viability. Results are means of quadruplicates.

| Structure (SMILES) | MTT AR-Pos [1] | MTT AR Neg [2] | other results |
| --- | --- | --- | --- |
| C#CCNC(=O)/C(=C/c1ccc(Cl)cc1)c1ccc(F)cc1F [JN144, (E)-3-(4-Chlorophenyl)-2-(2,4-difluorophenyl)-N-(prop-2-yn-1-yl)acrylamide] | LOW | LOW | – |
| C=C(C)C(=O)NC(=O)/C(=C/c1ccc(C(F)(F)F)nc1)c1ccccc1 [JN153] | HIGH | HIGH | – |
| O=C(C1=CCN(Cc2ccccc2)CC1)/C(=C/c1ccc(Cl)cc1)c1ccccc1 [JN142, (E)-1-(1-Benzyl-1,2,3,6-tetrahydropyridin-4-yl)-3-(4-chlorophenyl)-2-phenylprop-2-en-1-one] | LOW | LOW | – |
| C=C(C)C(=O)NCCCNC(=O)/C(=C/c1ccc(Cl)cc1)c1ccc(F)cc1F [JN156, (E)-3-(4-Chlorophenyl)-2-(2,4-difluorophenyl)-N-(3-methacrylamidopropyl)acrylamide] | LOW | LOW | – |
| C=C(C)C(=O)OCCOC(=O)/C(=C/c1ccc(Cl)cc1)c1ccc(F)cc1F [JN151] | LOW | LOW | – |
| Cc1cnc(/C(=C/c2ccc(Cl)cc2)c2ccc(F)cc2F)o1 [JN148, (E)-2-(2-(4-Chlorophenyl)-1-(2,4-difluorophenyl)vinyl)-5-methyloxazole] | LOW | LOW | – |
| CNC(=O)c1ccc(N2C(=S)N(c3ccc(C#N)c(C(F)(F)F)c3)C(=O)C2(C)C)cc1F [MDV3100, reference compound] | HIGH | LOW | GRE [3]: LOW; JUN-TAD [4]: LOW; CREB-TAD [5]: LOW; AP1 (AP1 (jun and fos family)): HIGH |
| O=C(/C=C/C(F)(F)F)NC(=O)/C(=C/c1ccc(Cl)cc1)c1ccc(F)cc1F [JN154] | HIGH | LOW | – |
| O=C(/C=C/c1ccccc1)NC(=O)/C(=C/c1ccc(Cl)cc1)c1ccc(F)cc1F [JN155] | LOW | LOW | – |
| NS(=O)(=O)NC(=O)/C(=C/c1ccc(Cl)cc1)c1ccc(F)cc1F [JN145, (E)-3-(4-Chlorophenyl)-2-(2,4-difluorophenyl)-N-sulfamoylacrylamide] | LOW | LOW | – |
| C=C(C)C(=O)NC(=O)/C(=C/c1ccc(Cl)cc1)c1ccc(C(F)(F)F)cc1 [JN152] | HIGH | LOW | MMTV (androgen receptor (AR)): HIGH; GRE [3]: HIGH; AR-TAD [6]: HIGH; CREB-TAD [5]: HIGH |
| O=C(NC(=O)C1CC1)/C(=C/c1ccc(Cl)cc1)c1ccc(F)cc1F [JN147, (E)-N-(3-(4-Chlorophenyl)-2-(2,4-difluorophenyl)acryloyl)cyclopropanecarboxamide] | LOW | LOW | – |
| CCC1=C(C)CN(C(=O)/C(=C/c2ccc(Cl)cc2)c2ccccc2)C1=O [JN140, (E)-1-(3-(4-Chlorophenyl)-2-phenylacryloyl)-3-ethyl-4-methyl-1,5-dihydro-2H-pyrrol-2-one] | HIGH | HIGH | – |
| C=C1CC(c2ccc(OC)cc2)=C(c2ccccc2)C1=O [JN053] | LOW | LOW | MMTV (androgen receptor (AR)): MED |
| O=C1CCCN1C(=O)/C(=C/c1ccc(Cl)cc1)c1ccccc1 [JN141] | LOW | LOW | – |
| C=C1CN=C(/C(=C/c2ccc(Cl)cc2)c2ccc(F)cc2F)O1 [JN149, (E)-2-(2-(4-Chlorophenyl)-1-(2,4-difluorophenyl)vinyl)-5-methylene-4,5-dihydrooxazole] | LOW | LOW | – |
| N#CC1(NC(=O)/C(=C/c2ccc(Cl)cc2)c2ccc(F)cc2F)CC1 [JN146] | LOW | LOW | – |
| C=C(Cc1ccccc1)C(=O)NC(=O)/C(=C/c1ccc(Cl)cc1)c1ccc(F)cc1F [JN150] | HIGH | HIGH | – |
| C=CC(=O)NC(=O)/C(=C/c1ccc(Cl)cc1)c1ccc(F)cc1 [JN139] | LOW | LOW | – |
| C=C(C)C(=O)NC(=O)/C(=C/c1ccc(Cl)cc1)c1ccc(F)cc1 [JN103, (E)-3-(4-Chlorophenyl)-2-(4-fluorophenyl)-N-methacryloylacrylamide] | – | – | AR gene signature (gene set expression analysis) [7]: marked decrease in the AR gene signature; degradation of full-length AR [8]: potently induces time- and dose-dependent degradation; degradation of full-length AR and AR-V7 (full-length AR and AR-V7): potently induces time- and dose-dependent degradation; degradation of ARΔ567 (ARΔ567): potently induces time- and dose-dependent degradation; degradation of other proteins, including actin or the GR (actin or the GR): does not affect the degradation; degradation of the AR (AR): induces degradation of the AR; degradation of the ER or PR (ER or PR): not the ER or PR; colony formation [9]: inhibits the growth; colony formation [10]: inhibits the growth; colony formation [11]: inhibits the growth; colony formation (AR-null DU145 cells): limited impact on colony formation; colony formation (PC3 cell): only mild effects; growth inhibition (MTT cell viability) [12]: significant growth inhibition |
| COC1=CC(=O)N(C(=O)/C(=C/c2ccc(Cl)cc2)c2ccc(F)cc2F)C1 [JN143] | LOW | LOW | – |
